Assay results published in patent publication US11427549B2, “Pyrimidinyloxy benzo-fused compounds as herbicides” (FMC Corporation, priority 2017, dated 2022).

Key:
[1] = tested on: ryegrass, Italian (Italian ryegrass, Lolium multiflorum); test: Test A preemergence, ryegrass, Italian; type: in vivo; details: Lolium multiflorum, pre-emergence, 240 h, 0 to 100 scale (0 no effect, 100 complete control), read-out: Plant response rating, Ryegrass, Italian; for pest or weed control at 31 g/ha: 31 g ai/ha; for pest or weed control at 125 g/ha: 125 g ai/ha
[2] = tested on: pigweed (Amaranthus retroflexus); test: Test A postemergence, pigweed; type: in vivo; details: Amaranthus retroflexus, post-emergence, 240 h, 0 to 100 scale (0 no effect, 100 complete control), read-out: Plant response rating, Pigweed; for pest or weed control at 31 g/ha: 31 g ai/ha; for pest or weed control at 125 g/ha: 125 g ai/ha
rice (Oryza sativa) = test: Test B flooded paddy test, rice; details: Oryza sativa, read-out: Plant response rating, Rice (0 to 100 scale, 0 is no effect, 100 is complete control)
[3] = tested on: wheat (Triticum aestivum); test: Test A postemergence, wheat; type: in vivo; details: Triticum aestivum, post-emergence, 240 h, 0 to 100 scale (0 no effect, 100 complete control), read-out: Plant response rating, Wheat; for plant injury at 31 g/ha: 31 g ai/ha; for plant injury at 125 g/ha: 125 g ai/ha
[4] = tested on: barnyardgrass (Echinochloa crus-galli); test: Test A preemergence, barnyardgrass; type: in vivo; details: Echinochloa crus-galli, pre-emergence, 240 h, 0 to 100 scale (0 no effect, 100 complete control), read-out: Plant response rating, Barnyardgrass; for pest or weed control at 31 g/ha: 31 g ai/ha; for pest or weed control at 125 g/ha: 125 g ai/ha
[5] = tested on: blackgrass (Alopecurus myosuroides); test: Test A postemergence, blackgrass; type: in vivo; details: Alopecurus myosuroides, post-emergence, 240 h, 0 to 100 scale (0 no effect, 100 complete control), read-out: Plant response rating, Blackgrass; for pest or weed control at 31 g/ha: 31 g ai/ha; for pest or weed control at 125 g/ha: 125 g ai/ha
[6] = tested on: ragweed (common ragweed, Ambrosia elatior); test: Test A postemergence, ragweed; type: in vivo; details: Ambrosia artemisiifolia, post-emergence, 240 h, 0 to 100 scale (0 no effect, 100 complete control), read-out: Plant response rating, Ragweed; for pest or weed control at 31 g/ha: 31 g ai/ha; for pest or weed control at 125 g/ha: 125 g ai/ha
corn (Zea mays) = test: Test A postemergence, corn; type: in vivo; details: Zea mays, post-emergence, 240 h, 0 to 100 scale (0 no effect, 100 complete control); for Corn plant response rating (crop injury, 0 = no effect, 100 = complete kill) at 31 g/ha: 31 g ai/ha; for Corn plant response rating (crop injury, 0 = no effect, 100 = complete kill) at 125 g/ha: 125 g ai/ha
[7] = tested on: barnyardgrass (Echinochloa crus-galli); test: Test B flooded paddy test, barnyardgrass; details: Echinochloa crus-galli, read-out: Plant response rating, Barnyardgrass (0 to 100 scale, 0 is no effect, 100 is complete control)
[8] = tested on: foxtail, giant (giant foxtail, Setaria faberii); test: Test A preemergence, foxtail, giant; type: in vivo; details: Setaria faberi, pre-emergence, 240 h, 0 to 100 scale (0 no effect, 100 complete control), read-out: Plant response rating, Foxtail, Giant; for pest or weed control at 31 g/ha: 31 g ai/ha; for pest or weed control at 125 g/ha: 125 g ai/ha
[9] = tested on: galium (catchweed bedstraw, Galium aparine); test: Test A postemergence, galium; type: in vivo; details: Galium, post-emergence, 240 h, 0 to 100 scale (0 no effect, 100 complete control), read-out: Plant response rating, Galium; for pest or weed control at 31 g/ha: 31 g ai/ha; for pest or weed control at 125 g/ha: 125 g ai/ha
[10] = tested on: pigweed (Amaranthus retroflexus); test: Test A preemergence, pigweed; type: in vivo; details: Amaranthus retroflexus, pre-emergence, 240 h, 0 to 100 scale (0 no effect, 100 complete control), read-out: Plant response rating, Pigweed; for pest or weed control at 31 g/ha: 31 g ai/ha; for pest or weed control at 125 g/ha: 125 g ai/ha
[11] = tested on: ryegrass, Italian (Italian ryegrass, Lolium multiflorum); test: Test A postemergence, ryegrass, Italian; type: in vivo; details: Lolium multiflorum, post-emergence, 240 h, 0 to 100 scale (0 no effect, 100 complete control), read-out: Plant response rating, Ryegrass, Italian; for pest or weed control at 31 g/ha: 31 g ai/ha; for pest or weed control at 125 g/ha: 125 g ai/ha
kochia (Kochia scoparia) [12] = test: Test A preemergence, kochia; type: in vivo; details: Bassia scoparia, pre-emergence, 240 h, 0 to 100 scale (0 no effect, 100 complete control), read-out: Plant response rating, Kochia; for pest or weed control at 31 g/ha: 31 g ai/ha; for pest or weed control at 125 g/ha: 125 g ai/ha
[13] = tested on: ragweed (common ragweed, Ambrosia elatior); test: Test A preemergence, ragweed; type: in vivo; details: Ambrosia artemisiifolia, pre-emergence, 240 h, 0 to 100 scale (0 no effect, 100 complete control), read-out: Plant response rating, Ragweed; for pest or weed control at 31 g/ha: 31 g ai/ha; for pest or weed control at 125 g/ha: 125 g ai/ha
[14] = tested on: ducksalad (Heteranthera limosa); test: Test B flooded paddy test, ducksalad; details: Heteranthera limosa, read-out: Plant response rating, Ducksalad (0 to 100 scale, 0 is no effect, 100 is complete control)
kochia (Kochia scoparia) [15] = test: Test A postemergence, kochia; type: in vivo; details: Bassia scoparia, post-emergence, 240 h, 0 to 100 scale (0 no effect, 100 complete control), read-out: Plant response rating, Kochia; for pest or weed control at 31 g/ha: 31 g ai/ha; for pest or weed control at 125 g/ha: 125 g ai/ha
[16] = tested on: barnyardgrass (Echinochloa crus-galli); test: Test A postemergence, barnyardgrass; type: in vivo; details: Echinochloa crus-galli, post-emergence, 240 h, 0 to 100 scale (0 no effect, 100 complete control), read-out: Plant response rating, Barnyardgrass; for pest or weed control at 31 g/ha: 31 g ai/ha; for pest or weed control at 125 g/ha: 125 g ai/ha

Structure (SMILES)	pest or weed control at 31 g/ha [1] [%]	pest or weed control at 125 g/ha [1] [%]	pest or weed control at 31 g/ha [2] [%]	pest or weed control at 125 g/ha [2] [%]	plant injury at 250 g/ha (rice (Oryza sativa)) [%]	plant injury at 31 g/ha [3] [%]	plant injury at 125 g/ha [3] [%]	pest or weed control at 31 g/ha [4] [%]	pest or weed control at 125 g/ha [4] [%]	pest or weed control at 31 g/ha [5] [%]	pest or weed control at 125 g/ha [5] [%]	pest or weed control at 31 g/ha [6] [%]	pest or weed control at 125 g/ha [6] [%]	Corn plant response rating (crop injury, 0 = no effect, 100 = complete kill) at 31 g/ha (corn (Zea mays)) [%]	Corn plant response rating (crop injury, 0 = no effect, 100 = complete kill) at 125 g/ha (corn (Zea mays)) [%]	pest or weed control at 250 g/ha [7] [%]	pest or weed control at 31 g/ha [8] [%]	pest or weed control at 125 g/ha [8] [%]	pest or weed control at 31 g/ha [9] [%]	pest or weed control at 125 g/ha [9] [%]	other results
O=C1OCc2cccc(Oc3ncc(Cl)cn3)c2C1CCC(F)(F)F (stereo not drawn) [Compound 29, 5-[(5-Chloro-2-pyrimidinyl)oxy]-1,4-dihydro-4-(3,3,3-trifluoropropyl)-3H-2-benzopyran-3-one]	0	0	30	70	0	0	10	0	10	30	30	10	30	10	30	0	0	20	20	50	pest or weed control at 31 g/ha [10]: 0%; pest or weed control at 125 g/ha [10]: 80%; pest or weed control at 31 g/ha [11]: 0%; pest or weed control at 125 g/ha [11]: 30%; pest or weed control at 31 g/ha (kochia (Kochia scoparia) [12]): 0%; pest or weed control at 125 g/ha (kochia (Kochia scoparia) [12]): 10%; pest or weed control at 31 g/ha [13]: 0%; pest or weed control at 125 g/ha [13]: 10%; pest or weed control at 250 g/ha [14]: 0%; pest or weed control at 31 g/ha (kochia (Kochia scoparia) [15]): 20%; pest or weed control at 125 g/ha (kochia (Kochia scoparia) [15]): 60%; pest or weed control at 31 g/ha [16]: 0%; pest or weed control at 125 g/ha [16]: 30%
O=C1Cc2cccc(Oc3ncc(Cl)cn3)c2C(CCCC(F)(F)F)O1 (stereo not drawn) [Compound 17, 8-[(5-Chloro-2-pyrimidinyl)oxy]-1,4-dihydro-1-(4,4,4-trifluorobutyl)-3H-2-benzopyran-3-one]	0	10	50	70	0	0	10	10	50	20	50	10	10	20	20	0	10	70	40	90	pest or weed control at 31 g/ha [10]: 60%; pest or weed control at 125 g/ha [10]: 100%; pest or weed control at 31 g/ha [11]: 0%; pest or weed control at 125 g/ha [11]: 10%; pest or weed control at 31 g/ha (kochia (Kochia scoparia) [12]): 0%; pest or weed control at 125 g/ha (kochia (Kochia scoparia) [12]): 60%; pest or weed control at 31 g/ha [13]: 0%; pest or weed control at 125 g/ha [13]: 0%; pest or weed control at 250 g/ha [14]: 0%; pest or weed control at 31 g/ha (kochia (Kochia scoparia) [15]): 30%; pest or weed control at 125 g/ha (kochia (Kochia scoparia) [15]): 70%; pest or weed control at 31 g/ha [16]: 10%; pest or weed control at 125 g/ha [16]: 70%
FC(F)(F)CC[C@@H]1OCc2cccc(Oc3ncc(Cl)cn3)c21 [Compound 21, 5-Chloro-2-[[(3S)-1,3-dihydro-3-(3,3,3-trifluoropropyl)-4-isobenzofuranyl]oxy]-pyrimidine]	0	0	20	50	0	0	0	0	20	10	30	0	10	0	20	0	0	0	10	30	pest or weed control at 31 g/ha [10]: 0%; pest or weed control at 125 g/ha [10]: 0%; pest or weed control at 31 g/ha [11]: 0%; pest or weed control at 125 g/ha [11]: 0%; pest or weed control at 31 g/ha (kochia (Kochia scoparia) [12]): 0%; pest or weed control at 125 g/ha (kochia (Kochia scoparia) [12]): 0%; pest or weed control at 31 g/ha [13]: 0%; pest or weed control at 125 g/ha [13]: 0%; pest or weed control at 250 g/ha [14]: 70%; pest or weed control at 31 g/ha (kochia (Kochia scoparia) [15]): 20%; pest or weed control at 125 g/ha (kochia (Kochia scoparia) [15]): 60%; pest or weed control at 31 g/ha [16]: 0%; pest or weed control at 125 g/ha [16]: 20%
